These results are taken from the NIST ThermoML archive (doi:10.1021/je900460m).

Structures are written as SMILES. Numbers after ± are expanded uncertainties.

The term mass density denotes mass per unit of volume. What is called viscosity is the resistance of a fluid to flow.

With `CCCCCCn1cc[n+](C)c1.N#C[S-]` [1-hexyl-3-methylimidazolium thiocyanate], the mass density (298.15 K, 101.33 kPa, Liquid, Pycnometric method) was 1056.92 ± 11 kg/m3. Besides, the viscosity (298.15 K, Liquid, Capillary tube (Ostwald / Ubbelohde) method) was 93.62 ± 3.1 mPa·s. Besides, the Glass transition temperature (Glass, visual observation) is -83.2 ± 3 °C.
